# What was measured:
# [1] = Rat plasma half-life assay; format: in vitro ADME; settings: 37° C., LC-MS, read-out: Rat Plasma T½ (converted)
# [2] = molecular target: T1, human recombinant GIP receptor (Homo sapiens, UniProt P48546); test: In vitro hGIP receptor binding assay
# T1 construct: expressed in transfected cells; host or cells: CHO-K1 clonal cells (membrane preparation)
# T1 sequence (P48546 22-466): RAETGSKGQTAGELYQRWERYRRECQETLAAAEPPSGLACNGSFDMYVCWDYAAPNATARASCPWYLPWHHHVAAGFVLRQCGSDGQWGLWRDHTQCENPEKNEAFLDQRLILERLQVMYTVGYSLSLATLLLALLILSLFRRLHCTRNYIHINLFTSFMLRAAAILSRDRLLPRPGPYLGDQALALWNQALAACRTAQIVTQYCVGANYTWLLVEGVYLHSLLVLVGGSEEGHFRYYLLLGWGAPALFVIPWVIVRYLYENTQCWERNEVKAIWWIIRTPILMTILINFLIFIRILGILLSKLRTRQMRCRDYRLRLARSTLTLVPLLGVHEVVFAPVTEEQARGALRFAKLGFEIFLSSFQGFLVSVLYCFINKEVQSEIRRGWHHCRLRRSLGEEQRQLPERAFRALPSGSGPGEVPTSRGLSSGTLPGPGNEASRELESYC
# Method: A. In Vitro hGIP Receptor Binding Assay […] The incubations were terminated by rapid filtration through GF/C filters (pre-soaked in 0.5% polyethylenimine) using a Brandel filtration manifold. Each tube and filter were then washed three times with 5-ml aliquots of ice-cold buffer.
# [3] = Human plasma half-life assay; format: in vitro ADME; settings: 37° C., LC-MS, read-out: Human Plasma T½ (converted)
Structure (SMILES),half-life at 0.1 mg/ml [1],Ki [2],half-life at 0.1 mg/ml [3]
"CCCC[C@H](NC(=O)[C@H](C)NC(=O)[C@@H](NC(=O)C1(NC(=O)[C@H](Cc2ccc(O)cc2)NC(=O)[C@H](CC(=O)O)NC(=O)[C@H](CO)NC(=O)[C@@H](NC(=O)[C@H](Cc2ccccc2)NC(=O)[C@@H](NC(=O)CNC(=O)[C@H](CCC(=O)O)NC(=O)C(C)(C)NC(=O)[C@@H](N)Cc2c(C)cc(O)cc2C)[C@@H](C)O)[C@@H](C)CC)CCCC1)[C@@H](C)CC)C(=O)N[C@@H](CC(=O)O)C(=O)N[C@@H](CCCCN)C(=O)N[C@H](C(=O)N[C@@H](Cc1c[nH]cn1)C(=O)N[C@@H](CCC(N)=O)C(=O)N[C@@H](CCC(N)=O)C(=O)N[C@@H](CC(=O)O)C(=O)N[C@@H](Cc1ccccc1)C(=O)N[C@H](C(=O)N[C@@H](CC(N)=O)C(=O)N[C@@H](Cc1c[nH]c2ccccc12)C(=O)N[C@@H](CC(C)C)C(=O)N[C@@H](CC(C)C)C(=O)N[C@@H](C)C(=O)N[C@@H](CCC(N)=O)C(=O)N[C@@H](CCCCN)C(=O)NCC(=O)N[C@@H](CCCCN)C(=O)N[C@@H](CCCCN)C(=O)N[C@@H](CC(N)=O)C(=O)N[C@@H](CC(=O)O)C(=O)N[C@@H](Cc1c[nH]c2ccccc12)C(=O)N[C@@H](CCCCN)C(=O)N[C@@H](Cc1c[nH]cn1)C(=O)N[C@@H](CC(N)=O)C(=O)N[C@H](C(=O)N[C@H](C(=O)N[C@@H](CCC(N)=O)C(=O)N[C@@H](Cc1c[nH]cn1)C(=O)O)[C@@H](C)O)[C@@H](C)CC)C(C)C)[C@@H](C)CC [Example 55, (2,6Me-Tyr^1, Aib^2, A5c^11, Nle^14, His^43)hGIP(1-43)-OH]",16.1 h,39 nM,37.7 h
"CC[C@H](C)[C@H](NC(=O)[C@H](CCCCN)NC(=O)[C@H](CC(=O)O)NC(=O)[C@H](CCSC)NC(=O)[C@H](C)NC(=O)[C@@H](NC(=O)C1(NC(=O)[C@H](Cc2ccc(O)cc2)NC(=O)[C@H](CC(=O)O)NC(=O)[C@H](CO)NC(=O)[C@@H](NC(=O)[C@H](Cc2ccccc2)NC(=O)[C@@H](NC(=O)CNC(=O)[C@H](CCC(=O)O)NC(=O)C(C)(C)NC(=O)[C@@H](N)Cc2ccc(OC(C)=O)cc2)[C@@H](C)O)[C@@H](C)CC)CCCC1)[C@@H](C)CC)C(=O)N[C@@H](Cc1c[nH]cn1)C(=O)N[C@@H](CCC(N)=O)C(=O)N[C@@H](CCC(N)=O)C(=O)N[C@@H](CC(=O)O)C(=O)N[C@@H](Cc1ccccc1)C(=O)N[C@H](C(=O)N[C@@H](CC(N)=O)C(=O)N[C@@H](Cc1c[nH]c2ccccc12)C(=O)N[C@@H](CC(C)C)C(=O)N[C@@H](CC(C)C)C(=O)N[C@@H](C)C(=O)N[C@@H](CCC(N)=O)C(=O)N[C@@H](CCCCN)C(=O)NCC(=O)N[C@@H](CCCCN)C(=O)N[C@@H](CCCCN)C(=O)N[C@@H](CC(N)=O)C(=O)N[C@@H](CC(=O)O)C(=O)N[C@@H](Cc1c[nH]c2ccccc12)C(=O)N[C@@H](CCCCN)C(=O)N[C@@H](Cc1c[nH]cn1)C(=O)N[C@@H](CC(N)=O)C(=O)N[C@H](C(=O)NC1(C(=O)N[C@@H](CCC(N)=O)C(=O)O)CCCC1)[C@@H](C)CC)C(C)C [Example 29, [Tyr(Ac)^1, Aib^2, A5c^11, 41]hGIP(1-42)-OH]",18.9 h,0.73 nM,29.5 h
"CC[C@H](C)[C@H](NC(=O)[C@H](CCCCN)NC(=O)[C@H](CC(=O)O)NC(=O)[C@H](CCSC)NC(=O)[C@H](C)NC(=O)[C@@H](NC(=O)C1(NC(=O)[C@H](Cc2ccc(O)cc2)NC(=O)[C@H](CC(=O)O)NC(=O)[C@H](CO)NC(=O)[C@@H](NC(=O)[C@H](Cc2ccccc2)NC(=O)[C@@H](NC(=O)CNC(=O)[C@H](CCC(=O)O)NC(=O)C(C)(C)NC(=O)[C@@H](N)Cc2ccc(F)cc2)[C@@H](C)O)[C@@H](C)CC)CCCC1)[C@@H](C)CC)C(=O)N[C@@H](Cc1c[nH]cn1)C(=O)N[C@@H](CCC(N)=O)C(=O)N[C@@H](CCC(N)=O)C(=O)N[C@@H](CC(=O)O)C(=O)N[C@@H](Cc1ccccc1)C(=O)N[C@H](C(=O)N[C@@H](CC(N)=O)C(=O)N[C@@H](Cc1c[nH]c2ccccc12)C(=O)N[C@@H](CC(C)C)C(=O)N[C@@H](CC(C)C)C(=O)N[C@@H](C)C(=O)N[C@@H](CCC(N)=O)C(=O)N[C@@H](CCCCN)C(=O)NCC(=O)N[C@@H](CCCCN)C(=O)N[C@@H](CCCCN)C(=O)N[C@@H](CC(N)=O)C(=O)N[C@@H](CC(=O)O)C(=O)N[C@@H](Cc1c[nH]c2ccccc12)C(=O)N[C@@H](CCCCN)C(=O)N[C@@H](Cc1c[nH]cn1)C(=O)N[C@@H](CC(N)=O)C(=O)N[C@H](C(=O)NC1(C(=O)N[C@@H](CCC(N)=O)C(=O)O)CCCC1)[C@@H](C)CC)C(C)C [Example 32, (4F-Phe^1, Aib^2, A5c^11, 41)hGIP(1-42)-OH]",> 61 h,5.82 nM,23.9 h
"CC[C@H](C)[C@H](NC(=O)[C@H](CCCCN)NC(=O)[C@H](CC(=O)O)NC(=O)[C@H](CCSC)NC(=O)[C@H](C)NC(=O)[C@@H](NC(=O)C1(NC(=O)[C@H](Cc2ccc(O)cc2)NC(=O)[C@H](CC(=O)O)NC(=O)[C@H](CO)NC(=O)[C@@H](NC(=O)[C@H](Cc2ccccc2)NC(=O)[C@@H](NC(=O)CNC(=O)[C@H](CCC(=O)O)NC(=O)C(C)(C)NC(=O)[C@@H](N)Cc2c(C)cc(O)cc2C)[C@@H](C)O)[C@@H](C)CC)CCCC1)[C@@H](C)CC)C(=O)N[C@@H](Cc1c[nH]cn1)C(=O)N[C@@H](CCC(N)=O)C(=O)N[C@@H](CCC(N)=O)C(=O)N[C@@H](CC(=O)O)C(=O)N[C@@H](Cc1ccccc1)C(=O)N[C@H](C(=O)N[C@@H](CC(N)=O)C(=O)N[C@@H](Cc1c[nH]c2ccccc12)C(=O)N[C@@H](CC(C)C)C(=O)N[C@@H](CC(C)C)C(=O)N[C@@H](C)C(=O)N[C@@H](CCC(N)=O)C(=O)N[C@@H](CCCCN)C(=O)NCC(=O)N[C@@H](CCCCN)C(=O)N[C@@H](CCCCN)C(=O)N[C@@H](CC(N)=O)C(=O)N[C@@H](CC(=O)O)C(=O)N[C@@H](Cc1c[nH]c2ccccc12)C(=O)N[C@@H](CCCCN)C(=O)N[C@@H](Cc1c[nH]cn1)C(=O)N[C@@H](CC(N)=O)C(=O)N[C@H](C(=O)NC1(C(=O)N[C@@H](CCC(N)=O)C(=O)O)CCCC1)[C@@H](C)CC)C(C)C [Example 30, (2,6Me-Tyr^1, Aib^2, A5c^11, 41)hGIP(1-42)-OH]",7.2 h,1.03 nM,27.6 h
"CCCC[C@H](NC(=O)[C@H](C)NC(=O)[C@@H](NC(=O)C1(NC(=O)[C@H](Cc2ccc(O)cc2)NC(=O)[C@H](CC(=O)O)NC(=O)[C@H](CO)NC(=O)[C@@H](NC(=O)[C@H](Cc2ccccc2)NC(=O)[C@@H](NC(=O)CNC(=O)[C@H](CCC(=O)O)NC(=O)C(C)(C)NC(=O)[C@@H](N)Cc2ccc(F)c(F)c2)[C@@H](C)O)[C@@H](C)CC)CCCC1)[C@@H](C)CC)C(=O)N[C@@H](CC(=O)O)C(=O)N[C@@H](CCCCN)C(=O)N[C@H](C(=O)N[C@@H](Cc1c[nH]cn1)C(=O)N[C@@H](CCC(N)=O)C(=O)N[C@@H](CCC(N)=O)C(=O)N[C@@H](CC(=O)O)C(=O)N[C@@H](Cc1ccccc1)C(=O)N[C@H](C(=O)N[C@@H](CC(N)=O)C(=O)N[C@@H](Cc1c[nH]c2ccccc12)C(=O)N[C@@H](CC(C)C)C(=O)N[C@@H](CC(C)C)C(=O)N[C@@H](C)C(=O)N[C@@H](CCC(N)=O)C(=O)N[C@@H](CCCCN)C(=O)NCC(=O)N[C@@H](CCCCN)C(=O)N[C@@H](CCCCN)C(=O)N[C@@H](CC(N)=O)C(=O)N[C@@H](CC(=O)O)C(=O)N[C@@H](Cc1c[nH]c2ccccc12)C(=O)N[C@@H](CCCCN)C(=O)N[C@@H](Cc1c[nH]cn1)C(=O)N[C@@H](CC(N)=O)C(=O)N[C@H](C(=O)N[C@H](C(=O)N[C@@H](CCC(N)=O)C(=O)O)[C@@H](C)O)[C@@H](C)CC)C(C)C)[C@@H](C)CC [Example 24, (3,4F-Phe^1, Aib^2, A5c^11, Nle^14)hGIP(1-42)-OH]",> 74 h,15.7 nM,> 74 h
"CC[C@H](C)[C@H](NC(=O)[C@H](CCCCN)NC(=O)[C@H](CC(=O)O)NC(=O)[C@H](CCSC)NC(=O)[C@H](C)NC(=O)[C@@H](NC(=O)C1(NC(=O)[C@H](Cc2ccc(O)cc2)NC(=O)[C@H](CC(=O)O)NC(=O)[C@H](CO)NC(=O)[C@@H](NC(=O)[C@H](Cc2ccccc2)NC(=O)[C@@H](NC(=O)CNC(=O)[C@H](CCC(=O)O)NC(=O)C(C)(C)NC(=O)[C@@H](N)Cc2c(C)cc(O)cc2C)[C@@H](C)O)[C@@H](C)CC)CCCC1)[C@@H](C)CC)C(=O)N[C@@H](Cc1c[nH]cn1)C(=O)N[C@@H](CCC(N)=O)C(=O)N[C@@H](CCC(N)=O)C(=O)N[C@@H](CC(=O)O)C(=O)N[C@@H](Cc1ccccc1)C(=O)N[C@H](C(=O)N[C@@H](CC(N)=O)C(=O)N[C@@H](Cc1c[nH]c2ccccc12)C(=O)N[C@@H](CC(C)C)C(=O)N[C@@H](CC(C)C)C(=O)N[C@@H](C)C(=O)N[C@@H](CCC(N)=O)C(=O)N[C@@H](CCCCN)C(=O)NCC(=O)N[C@@H](CCCCN)C(=O)N[C@@H](CCCCN)C(=O)N[C@@H](CC(N)=O)C(=O)N[C@@H](CC(=O)O)C(=O)N[C@@H](Cc1c[nH]c2ccccc12)C(=O)N[C@@H](CCCCN)C(=O)N[C@@H](Cc1c[nH]cn1)C(=O)N[C@@H](CC(N)=O)C(=O)N[C@H](C(=O)N[C@H](C(=O)N[C@@H](CCC(N)=O)C(=O)N[C@@H](Cc1c[nH]cn1)C(=O)O)[C@@H](C)O)[C@@H](C)CC)C(C)C [Example 53, (2,6Me-Tyr^1, Aib^2, A5c^11, His^43)hGIP(1-43)-OH]",23.2 h,35 nM,20 h
